According to patent publication US8999937B2, “Glucocorticoid induced leucine zipper mimetics as therapeutic agents in multiple sclerosis” (Indiana University Research and Technology Corporation, priority 2011, dated 2015):
“Also recorded” adds a separate entry of the source.

Tests used:
[1] = system: T-bet, GATA-3, IL-10 and FoxP3 mRNA; test: Quantitative RT-PCR in CD4+ LNC from treated R-EAE mice; type: in vivo, mouse; details: for GATA-3 mRNA / T-bet mRNA: mice treated on day 0, re-stimulation with PLP139-151; for FoxP3 mRNA / IL-10 mRNA: mice treated on day 0, vs vehicle/control-P
Experimental: 50 ng of cDNA from CD4+LNC were used for quantitative measurement of message for (A) T-bet, (B) GATA-3, (C) IL-10, and (D) FoxP3 by quantitative RT-PCR. (E), gel electrophoresis of representative products. * and # represent p<0.05 by analysis of variance as compared with vehicle or control peptide-treated group, respectively.

[2] = molecular target: T1, recombinant human p65 protein (r-p65) (Homo sapiens, UniProt Q04206); test: GILZ:p65 direct binding and kinetics by modified ELISA
T1 construct: control-P at varying concentrations was probed with full-length r-p65-DDK; purchased OriGene Technologies Inc., Rockville, Md
Experimental: To detect direct interaction, ELISA plates were coated with increasing concentrations of the GILZ protein and probed with increasing concentrations of the p65 protein followed by detection with anti-human GILZ mAb. To detect binding of cellular GILZ and p65, ELISA plates were coated with the p65 protein (20 ng), and probed with the cytoplasmic fraction from T cells. Binding of the plate bound p65 with the cytoplasmic GILZ protein was detected with anti-human GILZ mAb. Alternatively, wells coated with the GILZ-GST protein (20 ng) were probed with the nuclear fractions from T cells and the GILZ:nuclear p65 binding was detected with anti-human p65 mAb. The bound complex was detected with TNB at absorbance of 450 nm.
(§1) Binding of the plate-bound r-p65 with cytoplasmic GILZ and the plate-bound GILZ with nuclear p65 was detected with anti-GILZ mAb or anti-p65 mAb, respectively, followed by trinitrobenzene substrate. […] Absorbance at 650 nm was measured between 0 and 300 s with a mixing time of 0.30 s and a 5-s interval between readings.

Circular dichroism = type: physicochemical
Experimental: CD measurements can be recorded on a JASCO model, J-710 spectropolarimeter, (Jasco Inc, Easton, Md.) as described previously. The samples can be prepared by dissolving lyophilized GILZ peptide or control peptides at 100 μM concentration in citrate buffer (1 mM sodium citrate, 1 mM sodium borate, 1 mM sodium phosphate, 15 mM NaCl) with pH adjusted at 7.0. CD spectra can be collected using a 1 cm path-length quartz cuvette at 50° C. or 90° C. in the 190- to 270-nm wavelength range with a 0.5 nm resolution and a scan rate of 200 nm/min. Reported spectra can represent the unsmoothed averages of 30 scans. Each spectrum can be measured three times with individually prepared solutions. Raw CD signals (in millidegrees) can be converted to mean residue molar ellipticity (θ) in deg cm^2/dmol using the formula [θ] MRW 5 [θ]obs/101cn, where θ obs is the observed ellipticity, 1 is the pathlength in centimeters, c is the molar concentration of peptide, and n is the number of residues in the peptide. To determine 0% PPII helical content CD spectra can be recorded with GILZ-peptide dissolved in 5M CaCl2.

p65ΔC14 = molecular target: T2, p65ΔC14 (Homo sapiens, UniProt Q04206); test: GILZ binding ELISA with partial length p65; details: detected with anti-p65 mAb
T2 construct: purchased Active Motif, Carlsbad, Calif
Experimental: as §1

T-bet and GATA-3 mRNA = test: Real time PCR for T-bet and GATA-3 in CD4+ LNC restimulated in vitro; type: cell-based, mouse; details: CD4+ LNC restimulated in vitro with PLP139-151
Experimental: Intracellular delivery of r-GILZ was detected using […]-labeled anti-DDK mAb in permeabilized cells and measured by FACS Calibur. […] The delivery efficiency was assessed by mean fluorescence intensity (D). […] (F)-(I) show supernatants collected at 48 h were assessed for IFN-γ (F), IL-12 (G), IL-17 (H), and IL-10 (I) by ELISA. […] Five micrograms of nuclear extracts were tested for binding of the activated p65 NF-κB subunit to an NF-κB consensus sequence using the TransAM NF-κB ELISA kit. The p65 DNA binding activity was calculated as the ratio of absorbance from PLP139-151-stimulated cells to that of unstimulated cells. Values are the average±S.D. performed 3 times in duplicate. (K)-(L) show real time PCR for T-bet (K) and GATA-3 (L) was performed using 50 ng of cDNA isolated from CD4+LNC of R-EAE mice re-stimulated in vitro with PLP139-151 under the indicated conditions.
Proliferative responses of CD4+ lymph node cells and splenocytes harvested 10 days post-induction upon re-stimulation in vitro with PLP^139-151 in the presence or absence of chariot peptide complexed with purified GILZ protein and/or GILZ mimetics at varying concentrations is determined as described. IL-2, TNF-α, IFN-γ, IL12-p40, IL-17, IL-4, IL-5, IL-10 and TGF-β) of the cells following similar in vitro restimulation is determined by ELISA. Measurement of relative quantities of Th1 and Th2 specific transcription factors is determined by real time PCR using ABI primers.

[3] = system: CD4+ splenocytes from R-EAE mice; test: Ex vivo proliferation of CD4+ splenocytes from treated R-EAE mice; type: in vivo, mouse; details: for proliferative responses (mean Δcpm) to PLP139-151: mice treated on day 0, cells 45 days post-immunization; for average proliferative response of unstimulated CD4+ splenocytes: in cpm
Experimental: Data represent average±S.D. from two experiments (n=9/group). (C)-(H) show GILZ-peptide treatment suppresses Th1 cytokines in R-EAE. […] C, proliferative responses of CD4+ splenocytes are plotted as Δcpm±S.E. #, p<0.05 as compared with the responses of cells from vehicle-treated mice. Supernatant collected at 48 h from separate CD4+ splenocyte cultures were assessed for (D) IL-12, (E) IFN-γ, (F) IL-17, (G) IL-10, and (H) TGF-β by ELISA. * and # represent p<0.05 as compared with vehicle or control peptide-treated groups, respectively.
Supernatants collected at 24 and 48 h were assessed for specific cytokines using the OptEIA kits (BD Biosciences). Proliferation assays included parallel cultures for 72 h with a final 18-h pulse with [^3H]thymidine measured by liquid scintillation counting (Microbeta, Turku, Finland).

[4] = system: PPD stimulated human CD4+ T cells; test: Cytokine secretion by PPD-stimulated human CD4+ T cells (ELISA); type: cell-based; details: 24 h, complex with chariot peptide
Experimental: Purified CD4+ T cells isolated from PBMC by magnetic cell separation (Miltenyi Biotech, Germany), were seeded with irradiated autologous PBMC (T cells depleted) as APC at 1:1.5 ratio in serum-free RPMI (with 5% penicillin/streptomycin), and stimulated with PPD (20 μm/ml) alone or in the presence of dexamethasone (100 μm/ml) or 20:1 M complex of chariot peptide with GILZ protein (0.7 μm/ml)/anti-human GILZ mAb (1 μm/ml)/anti-human p65 mAb (1 μm/ml)/control antibody (1 μm/ml). Supernatants collected at 24 hrs were assessed for cytokines including human IFN-γ, TNF-α, IL-12 p40 and IL-10 using BD OptEIA™ kits. Differences in the secretion of cytokines between the groups were determined by one way ANOVA followed by Tukey's post-hoc analysis (see FIG. 4).

T1 sequence (Q04206 whole entry): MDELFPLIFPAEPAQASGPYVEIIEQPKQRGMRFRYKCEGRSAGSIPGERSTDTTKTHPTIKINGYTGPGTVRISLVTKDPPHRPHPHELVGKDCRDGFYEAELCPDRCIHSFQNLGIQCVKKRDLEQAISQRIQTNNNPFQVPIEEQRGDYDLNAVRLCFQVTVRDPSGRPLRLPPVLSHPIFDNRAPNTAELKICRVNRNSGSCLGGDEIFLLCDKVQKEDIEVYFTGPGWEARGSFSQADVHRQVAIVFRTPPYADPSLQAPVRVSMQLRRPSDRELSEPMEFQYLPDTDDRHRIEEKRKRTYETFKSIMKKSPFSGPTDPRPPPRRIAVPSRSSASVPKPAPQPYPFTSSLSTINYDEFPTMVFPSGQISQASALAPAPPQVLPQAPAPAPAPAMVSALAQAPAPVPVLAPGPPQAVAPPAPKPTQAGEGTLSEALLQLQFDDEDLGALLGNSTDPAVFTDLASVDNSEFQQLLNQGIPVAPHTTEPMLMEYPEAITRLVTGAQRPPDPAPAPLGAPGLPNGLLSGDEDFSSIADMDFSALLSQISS
T2 sequence (Q04206 1-537 limits assumed, stated change not applied): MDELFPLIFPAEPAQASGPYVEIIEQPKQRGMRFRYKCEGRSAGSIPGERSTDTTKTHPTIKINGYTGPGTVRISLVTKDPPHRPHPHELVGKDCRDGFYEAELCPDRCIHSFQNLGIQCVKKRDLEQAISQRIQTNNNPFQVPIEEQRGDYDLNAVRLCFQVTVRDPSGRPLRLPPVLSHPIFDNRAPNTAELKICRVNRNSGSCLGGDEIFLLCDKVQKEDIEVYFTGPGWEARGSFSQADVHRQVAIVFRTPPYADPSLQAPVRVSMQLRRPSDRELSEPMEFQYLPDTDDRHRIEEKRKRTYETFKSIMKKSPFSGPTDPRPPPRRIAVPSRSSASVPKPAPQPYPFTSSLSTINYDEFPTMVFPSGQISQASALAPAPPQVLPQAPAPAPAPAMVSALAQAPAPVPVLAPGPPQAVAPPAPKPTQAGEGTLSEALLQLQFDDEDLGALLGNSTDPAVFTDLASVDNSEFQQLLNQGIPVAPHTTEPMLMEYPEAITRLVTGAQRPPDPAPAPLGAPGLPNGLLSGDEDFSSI

Ac-CLSPEEPAPESPQVPEAPGGSAV-NH2 [GILZ-P]
GATA-3 mRNA [1]: elevated
T-bet mRNA [1]: significantly lower
FoxP3 mRNA [1]: significantly higher
IL-10 mRNA [1]: significantly higher
time at which maximum absorbance was reached in binding with r-p65 [2]: 38 s
adjusted velocity of the interaction with r-p65 ([2]; at 1:4 molar concentrations): 25 s⁻¹
p65 binding (absorbance) of plate-bound agent probed with full-length r-p65 ([2]; varying coating concentrations, 40 μM r-p65): decreased with decreasing concentrations
mean residue molar ellipticity θ, maximum at 238 nm (Circular dichroism; 50° C.): 1.12×10^3 deg cm^2 dmol^−1
mean residue molar ellipticity θ, minimum at 200 nm (Circular dichroism; 50° C.): −20.03×10^3 deg·cm^2/dmol
mean residue molar ellipticity θ @ 204 nM (Circular dichroism; 90° C.): −11.37×10^3 deg cm^2/dmol
mean residue ellipticity minimum at 205 nM (Circular dichroism; in 5M CaCl2): −8.84×10^3 deg cm^2/dmol
absorbance of plate-bound agent probed with p65ΔC14 (p65ΔC14): Absorbance over background was not observed
GATA-3 mRNA (T-bet and GATA-3 mRNA): elevated
T-bet mRNA (T-bet and GATA-3 mRNA): significantly decreased
GATA-3 mRNA (T-bet and GATA-3 mRNA; listed as GILZ-peptide): up-regulated
T-bet mRNA (T-bet and GATA-3 mRNA; listed as GILZ-peptide): down-regulated
proliferative responses (mean Δcpm) to PLP139-151 [3]: 5,733±208 cpm
average proliferative response of unstimulated CD4+ splenocytes ([3]; mice treated on day 0): 2,376±602
average proliferative response of unstimulated CD4+ splenocytes ([3]; mice treated on day 12): 1,823±532

r-GILZ: recombinant glucocorticoid induced leucine zipper protein (Abnova; OriGene with C-terminal DDK)
IL-10 secretion [4]: significantly elevated
secretion of IFN-γ [4]: significantly reduced
secretion of IL-12 [4]: significantly reduced
GATA-3 mRNA [1]: elevated
T-bet mRNA [1]: significantly lower
FoxP3 mRNA [1]: significantly higher
IL-10 mRNA [1]: significantly higher
GATA-3 mRNA (T-bet and GATA-3 mRNA): up-regulated; also recorded: elevated
T-bet mRNA (T-bet and GATA-3 mRNA): down-regulated; also recorded: significantly decreased
proliferative responses (mean Δcpm) to PLP139-151 [3]: 16,880±264 cpm
average proliferative response of unstimulated CD4+ splenocytes ([3]; mice treated on day 0): 2,037±603
